Measurements from patent US10758499B2, “Dermatitis treatment” (Avexxin AS, priority 2012, dated 2020).

Columns and labels:
[1] = molecular target: T1, group IVa PLA2 enzyme (Mus musculus, UniProt P47713); test: PGE2 EIA analysis of ear tissue homogenates after treatment; format: in vivo, mice; conditions: treated versus paraffin placebo ear tissue, right ear biopsies
T1 construct: the right ear biopsies were homogenized in 400 μl lysisbuffer; from tissue; host or cells: mouse ear tissue (in vivo treatment, ear biopsies homogenised)
T1 sequence (P47713 1-748): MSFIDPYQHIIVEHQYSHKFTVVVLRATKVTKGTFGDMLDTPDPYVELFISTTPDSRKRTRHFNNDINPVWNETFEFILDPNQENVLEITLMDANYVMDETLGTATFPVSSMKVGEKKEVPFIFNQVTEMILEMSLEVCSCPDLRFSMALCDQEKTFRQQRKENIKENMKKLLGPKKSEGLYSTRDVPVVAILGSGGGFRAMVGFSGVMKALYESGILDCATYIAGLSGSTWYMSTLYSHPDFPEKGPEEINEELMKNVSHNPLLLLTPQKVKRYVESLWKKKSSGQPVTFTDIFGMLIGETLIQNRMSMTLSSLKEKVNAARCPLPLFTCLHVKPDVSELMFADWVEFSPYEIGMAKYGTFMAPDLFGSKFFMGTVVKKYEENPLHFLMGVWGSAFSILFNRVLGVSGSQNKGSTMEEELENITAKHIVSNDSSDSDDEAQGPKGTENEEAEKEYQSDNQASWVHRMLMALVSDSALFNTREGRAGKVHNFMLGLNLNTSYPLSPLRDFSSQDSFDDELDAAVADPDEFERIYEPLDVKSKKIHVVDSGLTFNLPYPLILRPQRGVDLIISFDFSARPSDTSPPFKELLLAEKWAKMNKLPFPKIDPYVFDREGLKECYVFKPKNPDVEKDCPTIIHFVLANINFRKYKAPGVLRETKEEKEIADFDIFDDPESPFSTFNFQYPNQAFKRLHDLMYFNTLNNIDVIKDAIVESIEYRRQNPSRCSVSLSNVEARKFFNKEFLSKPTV
Experimental: Using a PreCellys homogenisator, the right ear biopsies were homogenized in 400 μl lysisbuffer containing 10 μM indomethasin. The lysate was stored at −80° C. until further processing. PGE2 EIA analysis ear homogenates was performed according to kit protocol (Cayman Chemicals). Plasma samples were diluted 1:60 and 1:180 in EIA buffer. The samples were hybridized over-night (18 hrs, 4° C.). The EIA plates were read using a Multiscan plate reader (Ascent Labsystems, OD550 nm). Ascent software for Multiscan, Version 2.4.1 was used to obtain the data. PGE2 results are shown as mean±SD relative to the paraffin-treated placebo mice (n=5 mice).
Data of groups was examined by one-way analysis of variance, and individual groups were then compared with Dunnets test or Students t-test. Data was given as mean±SD, if not stated otherwise. Values of p<0.05 were considered significant.

[2] = system: oxazolone-induced delayed-type-hypersensitivity (DTH) responses; test: oxazolone-induced ear edema model (delayed-type-hypersensitivity) in mice, therapeutic topical treatment; format: in vivo, mice (female BALB/c); conditions: for Relative oxazolone specific ear swelling, average: topical 1 h and 7 h after challenge, 24 h after challenge, placebo 95%; for Absolute oxazolone specific ear swelling, average: topical on right ear 1 h and 7 h after challenge, measured 24 h after challenge, placebo 217 μm
Experimental: DTH can be induced by skin sensitization with oxazolone, followed by a topical ear challenge with oxazolone 7 days later. This challenge results in development of an inflammatory response in the ear within 24 hours, which is dependent on antigen-specific T cells. The DTH reaction is associated with the recruitment of a variety of inflammatory cells and development of edema. The latter can be measured by quantifying changes in ear thickness before and after ear challenge. The oxazolone-induced ear edema model in mice is therefore a model of delayed contact hypersensitivity that permits the quantitative evaluation of the topical and systemic anti-inflammatory activity of a compound following topical administration. Female mice (6-8 wks—BALB/c) were acclimatization for 7 days in 12 hours light/12 hours dark cycle, at Temperature: 20-24° C., humidity: 55%±10%, on a standard laboratory mouse diet. Day 0: Mice were anesthetized by inhalation of 3-4% isoflurane in a 1:1 mixture of oxygen and medical air. The abdominal skin was shaved to enable topical application of 100 μl 1.5% (w/v) oxazolone in 100% acetone. Day 7: All ears were wiped with ethanol to optimize exposure to oxazolone. Subsequently, the right ear of the sensitized animals were challenged by topical administration of 20 μl (10 μl on each side of the ear) 2.5% (w/v) oxazolone in 100% ethanol. The left ears were treated with 20 μl 100% ethanol. Day 8: After 24 hours, mice were sacrificed and the right ears were collected to enable analysis by (immuno)-histochemistry and/or histology. The vehicle used to carry AVX001 was paraffin. The placebo was paraffin. Approx 20 μl (10 μl on each side of the right ear) of composition is applied to effect the test. 4 groups (8 mice per group) were studied. Group 1: Placebo, 1 hour and 7 hours after challenge Group 2: Compound 0.2 wt %, 1 hour and 7 hours after challenge Group 3: Compound 0.05 wt %, 1 hour and 7 hours after challenge Group 4: Compound 0.01 wt %, 1 hour and 7 hours after challenge Day 7: Ear thickness of both ears was measured directly before the ear-challenge (5 measurements per ear) using a Mitutoyo micrometer (accuracy 0.01 mm). Day 8: 24 Hours after challenge, thickness of left and right ears was measured again. The increase in ear thickness of each ear was calculated by subtracting the mean ear thickness measured on day 7 (before challenge) from the thickness on day 8 (24 hrs after challenge). To determine the oxazolone specific increase in ear thickness, the calculated increase in ear thickness of the left ear was subtracted from that of the right ear. Both absolute (Delta μm) and relative (%) increases in ear thickness were calculated. Increase in ear thickness (Delta μm): Thickness day 8 (μm)−Thickness day 7 (μm) Oxazolone specific increase (Delta μm): Increase right ear (Delta μm)−Increase left ear (Delta μm) Relative increase in ear thickness (%): (Increase in ear thickness (Delta μm)/Thickness day 7 (μm))*100% Relative oxazolone specific increase in ear thickness (%): Relative increase right ear (%)−Relative increase left ear (%) Data of groups was examined by one-way analysis of variance, and individual groups were then compared with Dunnets test or Students t-test. Data was given as mean±SD, if not stated otherwise. Values of p<0.05 were considered significant.

`CC/C=C\C/C=C\C/C=C\C/C=C\CC/C=C/CSCC(=O)C(F)(F)F` [AVX001] was tested. Which “reduction in ear tissue PGE2 concentration” value [1] did it give?
The value was 20%.

And the “Relative oxazolone specific ear swelling, average” value ([2]; AVX001 0.01% in paraffin)?
Its value is 58%.

What about the “Absolute oxazolone specific ear swelling, average” value ([2]; AVX001 0.01% in paraffin) of the same molecule?
Its value is 134 μm.

And the “Relative oxazolone specific ear swelling, average” value ([2]; AVX001 0.05% in paraffin)?
Its value is 43%.

What about the “Absolute oxazolone specific ear swelling, average” value ([2]; AVX001 0.05% in paraffin) of the same molecule?
Its value is 103 μm.

And the “Relative oxazolone specific ear swelling, average” value ([2]; AVX001 0.2% in paraffin)?
The value was 42%.

What about the “Absolute oxazolone specific ear swelling, average” value ([2]; AVX001 0.2% in paraffin) of the same molecule?
Its value is 94 μm.

What about the “reduction of the oxazolone specific ear swelling (result in words)” value ([2]; all concentrations (0.01%, 0.05%, 0.2%), topical, versus placebo) of the same molecule?
Its value is “statistically significant for all concentrations”.
